Experiments:
Format in all cases: biochemical
SIK3 = target: T1, SIK3 (Homo sapiens, UniProt Q9Y2K2); experiment: ADP-Glo kinase assay, SIK3
T1 construct: purchased SignalChem S12-11G-100
Description: (§1) The ADP-Glo™ kinase assay is a luminescent technology assay which measures the ADP formed from a kinase reaction. […] In a second step the kinase reactions are terminated and all the remaining ATP is depleted. In a final step the ADP is converted into ATP and this newly synthesized ATP is measured by using a luciferase/luciferin reaction. The generated light is measured using an Envision plate reader, wherein the luminescent signal obtained positively correlates with the kinase activity.
(§2) 1% DMSO and 10 μM staurosporine final concentrations are used as negative and positive controls.
(§3) 2 μL enzyme-substrate mixture is added to the assay plates.
(§4) The reaction is started by adding 2 μL diluted ATP on the assay plates. Plates are centrifuged for a few seconds at 1000 rpm and gently shaken for […] followed by an incubation at RT for 120 min.
(§5) The reactions are stopped and the unconsumed ATP is depleted by adding 5 μL ADP-Glo Reagent (Promega, Cat #V9120) to the reaction. The plates are centrifuged for a few seconds at 1000 rpm and incubated at RT for 40 min (ATP depletion).
(§6) The ADP is converted to ATP and luciferase and luciferin is introduced to detect ATP by adding 10 μL Kinase Detection Reagent (Promega, Cat #V913B+V914r) to the reaction. The plates are centrifuged for a few seconds at 1000 rpm and incubated at RT for 30 min (ADP detection).
(§7) Luminescence is measured on an Envision plate reader (PerkinElmer Inc.).

SIK2 = target: T2, SIK2 (Homo sapiens, UniProt Q9H0K1); experiment: ADP-Glo kinase assay, SIK2
T2 construct: purchased ThermoFisher Scientific PV4792
Description: as §1, §2, §3, §4, §5, §6, §7

SIK1 = target: T3, SIK1 (Homo sapiens, UniProt P57059); experiment: ADP-Glo kinase assay, SIK1
T3 construct: purchased Carna Biosciences 02-131
Description: as §1, §2, §3, §4, §5, §6, §7

T3 sequence (P57059 whole entry): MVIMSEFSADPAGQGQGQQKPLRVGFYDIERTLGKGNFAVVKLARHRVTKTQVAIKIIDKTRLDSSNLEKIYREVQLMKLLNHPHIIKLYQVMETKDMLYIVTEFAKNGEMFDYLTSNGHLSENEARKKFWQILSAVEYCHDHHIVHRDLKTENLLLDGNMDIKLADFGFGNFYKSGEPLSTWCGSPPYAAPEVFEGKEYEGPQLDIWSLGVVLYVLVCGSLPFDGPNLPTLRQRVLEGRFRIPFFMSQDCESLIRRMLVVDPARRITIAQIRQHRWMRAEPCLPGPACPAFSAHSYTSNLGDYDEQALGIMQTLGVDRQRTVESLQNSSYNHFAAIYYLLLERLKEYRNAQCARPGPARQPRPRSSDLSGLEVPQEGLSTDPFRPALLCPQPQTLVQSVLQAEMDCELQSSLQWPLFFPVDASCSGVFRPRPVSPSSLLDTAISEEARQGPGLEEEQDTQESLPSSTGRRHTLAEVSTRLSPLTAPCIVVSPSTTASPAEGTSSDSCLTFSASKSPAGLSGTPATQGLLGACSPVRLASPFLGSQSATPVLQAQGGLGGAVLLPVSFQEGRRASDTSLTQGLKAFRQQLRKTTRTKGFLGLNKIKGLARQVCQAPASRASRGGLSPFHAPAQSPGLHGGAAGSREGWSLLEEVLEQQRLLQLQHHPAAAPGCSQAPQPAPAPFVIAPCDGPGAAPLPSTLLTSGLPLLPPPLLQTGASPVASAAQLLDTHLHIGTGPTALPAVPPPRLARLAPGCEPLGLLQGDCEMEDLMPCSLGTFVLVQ
T1 sequence (Q9Y2K2 59-365 limits assumed): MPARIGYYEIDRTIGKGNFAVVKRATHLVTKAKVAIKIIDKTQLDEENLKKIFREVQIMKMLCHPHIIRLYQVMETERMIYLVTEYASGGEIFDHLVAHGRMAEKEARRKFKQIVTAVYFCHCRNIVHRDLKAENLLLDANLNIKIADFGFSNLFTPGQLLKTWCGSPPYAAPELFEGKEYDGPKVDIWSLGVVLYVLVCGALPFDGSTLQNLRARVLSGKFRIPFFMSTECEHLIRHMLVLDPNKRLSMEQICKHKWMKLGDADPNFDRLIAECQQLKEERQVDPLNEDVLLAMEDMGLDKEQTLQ
T2 sequence (Q9H0K1 whole entry): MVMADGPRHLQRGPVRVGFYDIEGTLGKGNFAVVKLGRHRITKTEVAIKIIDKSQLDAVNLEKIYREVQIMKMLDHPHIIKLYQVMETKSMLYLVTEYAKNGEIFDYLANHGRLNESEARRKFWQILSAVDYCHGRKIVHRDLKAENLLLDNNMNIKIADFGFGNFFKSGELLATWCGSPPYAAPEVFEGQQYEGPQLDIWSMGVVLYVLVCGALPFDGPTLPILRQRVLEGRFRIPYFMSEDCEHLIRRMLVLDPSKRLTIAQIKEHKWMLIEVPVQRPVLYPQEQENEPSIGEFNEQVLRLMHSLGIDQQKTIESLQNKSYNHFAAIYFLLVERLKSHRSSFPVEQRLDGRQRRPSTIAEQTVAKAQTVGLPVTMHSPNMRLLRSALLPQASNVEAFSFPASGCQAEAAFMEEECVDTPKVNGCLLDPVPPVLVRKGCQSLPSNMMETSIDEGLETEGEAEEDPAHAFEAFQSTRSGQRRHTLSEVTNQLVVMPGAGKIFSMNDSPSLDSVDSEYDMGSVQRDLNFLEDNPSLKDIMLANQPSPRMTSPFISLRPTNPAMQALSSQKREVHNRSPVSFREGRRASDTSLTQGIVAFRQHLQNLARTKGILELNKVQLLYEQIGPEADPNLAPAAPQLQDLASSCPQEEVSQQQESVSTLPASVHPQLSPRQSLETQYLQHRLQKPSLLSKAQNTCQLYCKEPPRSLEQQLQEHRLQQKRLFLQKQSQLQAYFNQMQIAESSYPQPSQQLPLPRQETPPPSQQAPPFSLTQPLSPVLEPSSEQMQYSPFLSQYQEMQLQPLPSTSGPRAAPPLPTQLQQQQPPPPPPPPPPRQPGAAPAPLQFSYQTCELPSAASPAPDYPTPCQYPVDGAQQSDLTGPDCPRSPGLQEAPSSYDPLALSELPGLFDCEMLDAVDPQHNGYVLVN

Structure (SMILES)	IC50 (SIK3)	IC50 (SIK2)	IC50 (SIK1)
COc1cc(-c2cnc3cc(C(C)(C)C#N)ccn23)cc(OC(F)F)c1C(=O)N1CC(NC(=O)OC(C)(C)C)C1 [Cpd 94, tert-butyl N-[1-[4-[7-(1-cyano-1-methyl-ethyl)imidazo[1,2-a]pyridin-3-yl]-2-(difluoromethoxy)-6-methoxy-benzoyl]azetidin-3-yl]carbamate]	> 500 nM	> 500 nM	> 500 nM
COc1cc(-c2cnc3cc(C4CCN4)ccn23)cc(OC(F)F)c1C(=O)NC1CC1 (stereo not drawn) [Cpd 203, 4-[7-(azetidin-2-yl)imidazo[1,2-a]pyridin-3-yl]-N-cyclopropyl-2-(difluoromethoxy)-6-methoxy-benzamide]	10 to 100 nM	100 to 500 nM	> 500 nM
COc1cc(-c2cnc3cc(C4(CO)CC4)ccn23)cc(OC(F)F)c1C(=O)NC1CC1 [Cpd 115, N-cyclopropyl-2-(difluoromethoxy)-4-[7-[1-(hydroxymethyl)cyclopropyl]imidazo[1,2-a]pyridin-3-yl]-6-methoxy-benzamide]	0.01 to 10 nM	10 to 100 nM	100 to 500 nM
COc1cc(-c2cnc3cc(C(C)(O)Cn4cncn4)ccn23)cc(OC(F)F)c1C(=O)NC1CC1 (stereo not drawn) [Cpd 194, N-cyclopropyl-2-(difluoromethoxy)-4-[7-[1-hydroxy-1-methyl-2-(1,2,4-triazol-1-yl)ethyl]imidazo[1,2-a]pyridin-3-yl]-6-methoxy-benzamide]	100 to 500 nM	> 500 nM	> 500 nM
COc1cc(-c2cnc3cc(C4CCOCC4)ccn23)cc(OC)c1C(=O)NCC(F)(F)F [Cpd 37, 2,6-dimethoxy-4-(7-tetrahydropyran-4-ylimidazo[1,2-a]pyridin-3-yl)-N-(2,2,2-trifluoroethyl)benzamide]	10 to 100 nM	100 to 500 nM	> 500 nM
CCN(CC)C(C)c1ccn2c(-c3cc(OC)c(C(=O)NC4CC4)c(OC(F)F)c3)cnc2c1 (stereo not drawn) [Cpd 148, N-cyclopropyl-4-[7-[1-(diethylamino)ethyl]imidazo[1,2-a]pyridin-3-yl]-2-(difluoromethoxy)-6-methoxy-benzamide]	10 to 100 nM	> 500 nM	> 500 nM
COc1cc(-c2cnc3cc(C(C)(C)C#N)ccn23)cc(OC(F)F)c1C(=O)N1CCC(O)CC1 [Cpd 41, 2-[3-[3-(difluoromethoxy)-4-(4-hydroxypiperidine-1-carbonyl)-5-methoxy-phenyl]imidazo[1,2-a]pyridin-7-yl]-2-methyl-propanenitrile]	> 500 nM	> 500 nM	> 500 nM
COc1cc(-c2cnc3cc(C4COCCN4)ccn23)cc(OC(F)F)c1C(=O)NC1CC1 (stereo not drawn) [Cpd 187, N-cyclopropyl-2-(difluoromethoxy)-6-methoxy-4-(7-morpholin-3-ylimidazo[1,2-a]pyridin-3-yl)benzamide]	10 to 100 nM	> 500 nM	> 500 nM
COc1cc(-c2cnc3cc(C(C)(C)C#N)ccn23)cc(OC(F)F)c1C(=O)NCC1COC1 [Cpd 102, 4-[7-(1-cyano-1-methyl-ethyl)imidazo[1,2-a]pyridin-3-yl]-2-(difluoromethoxy)-6-methoxy-N-(oxetan-3-ylmethyl)benzamide]	10 to 100 nM	> 500 nM	> 500 nM
COc1cc(-c2cnc3cc(C(C)(C)O)ncn23)cc(OC(F)F)c1C(=O)NC1CC1 [Cpd 119, N-cyclopropyl-2-(difluoromethoxy)-4-[7-(1-hydroxy-1-methyl-ethyl)imidazo[1,2-c]pyrimidin-3-yl]-6-methoxy-benzamide]	100 to 500 nM	> 500 nM	> 500 nM
COc1cc(-c2cnc3cc(C(C)(C)C#N)ccn23)cc(OC(F)F)c1C(=O)NC(C)C [Cpd 78, 4-[7-(1-cyano-1-methyl-ethyl)imidazo[1,2-a]pyridin-3-yl]-2-(difluoromethoxy)-N-isopropyl-6-methoxy-benzamide]	10 to 100 nM	> 500 nM	> 500 nM
COc1cc(-c2cnn3cc(C(C)(C)C#N)ccc23)cc(F)c1C(=O)NC1CC1 [Cpd 252, 4-[6-(1-cyano-1-methyl-ethyl)pyrazolo[1,5-a]pyridin-3-yl]-N-cyclopropyl-2-fluoro-6-methoxy-benzamide]	100 to 500 nM	> 500 nM	> 500 nM
COc1cc(-c2cnc3cc(C(C)(C)C#N)ccn23)cc(OC(F)F)c1C(=O)N1CCC1CO (stereo not drawn) [Cpd 105, 2-[3-[3-(difluoromethoxy)-4-[2-(hydroxymethyl)azetidine-1-carbonyl]-5-methoxy-phenyl]imidazo[1,2-a]pyridin-7-yl]-2-methyl-propanenitrile]	100 to 500 nM	> 500 nM	> 500 nM
COc1cc(-c2cnc3cc(C(C)(C)C#N)ccn23)cc(OC(F)F)c1C(=O)N1CC(O)C1 [Cpd 50, 2-[3-[3-(difluoromethoxy)-4-(3-hydroxyazetidine-1-carbonyl)-5-methoxy-phenyl]imidazo[1,2-a]pyridin-7-yl]-2-methyl-propanenitrile]	100 to 500 nM	> 500 nM	> 500 nM
COc1cc(-c2cnc3cc(C(C)(C)C#N)ccn23)cc(OC(F)F)c1C(=O)NC1CC(F)(F)C1 [Cpd 88, 4-[7-(1-cyano-1-methyl-ethyl)imidazo[1,2-a]pyridin-3-yl]-N-(3,3-difluorocyclobutyl)-2-(difluoromethoxy)-6-methoxy-benzamide]	10 to 100 nM	> 500 nM	> 500 nM
COc1cc(-c2cnc3cc(C(C)N4CC(F)(F)C4)ccn23)cc(OC(F)F)c1C(=O)NC1CC1 (stereo not drawn) [Cpd 156, N-cyclopropyl-4-[7-[1-(3,3-difluoroazetidin-1-yl)ethyl]imidazo[1,2-a]pyridin-3-yl]-2-(difluoromethoxy)-6-methoxy-benzamide]	10 to 100 nM	> 500 nM	> 500 nM
COc1cc(-c2cnc3cc(C4CCCN4C(C)C)ccn23)cc(OC(F)F)c1C(=O)NC1CC1 (stereo not drawn) [Cpd 197, N-cyclopropyl-2-(difluoromethoxy)-4-[7-(1-isopropylpyrrolidin-2-yl)imidazo[1,2-a]pyridin-3-yl]-6-methoxy-benzamide]	10 to 100 nM	10 to 100 nM	100 to 500 nM
CCC(O)C(C)(C)c1ccn2c(-c3cc(OC)c(C(=O)NC4CC4)c(OC(F)F)c3)cnc2c1 (stereo not drawn) [Cpd 201, N-cyclopropyl-2-(difluoromethoxy)-4-[7-(2-hydroxy-1,1-dimethyl-butyl)imidazo[1,2-a]pyridin-3-yl]-6-methoxy-benzamide]	10 to 100 nM	> 500 nM	> 500 nM
COc1cc(-c2cnc3cc(C4CN(C(=O)OC(C)(C)C)C4)ccn23)cc(OC)c1C(=O)NCC(F)(F)F [Cpd 58, tert-butyl 3-[3-[3,5-dimethoxy-4-(2,2,2-trifluoroethylcarbamoyl)phenyl]imidazo[1,2-a]pyridin-7-yl]azetidine-1-carboxylate]	10 to 100 nM	100 to 500 nM	100 to 500 nM
COc1cc(-c2cnc3cc(C4CCN4C)ccn23)cc(OC(F)F)c1C(=O)NC1CC1 (stereo not drawn) [Cpd 204, N-cyclopropyl-2-(difluoromethoxy)-6-methoxy-4-[7-(1-methylazetidin-2-yl)imidazo[1,2-a]pyridin-3-yl]benzamide]	10 to 100 nM	> 500 nM	> 500 nM
